Tests used:
[1] = molecular target: T1, Proto-oncogene tyrosine-protein kinase Src (Homo sapiens, UniProt P12931); settings: 2 uM
[2] = molecular target: T2, Mitogen-activated protein kinase 14 (Homo sapiens, UniProt Q16539); settings: 2 uM
[3] = molecular target: T1, Proto-oncogene tyrosine-protein kinase Src
[4] = molecular target: T2, Mitogen-activated protein kinase 14

T1 sequence (P12931 2-536 limits assumed): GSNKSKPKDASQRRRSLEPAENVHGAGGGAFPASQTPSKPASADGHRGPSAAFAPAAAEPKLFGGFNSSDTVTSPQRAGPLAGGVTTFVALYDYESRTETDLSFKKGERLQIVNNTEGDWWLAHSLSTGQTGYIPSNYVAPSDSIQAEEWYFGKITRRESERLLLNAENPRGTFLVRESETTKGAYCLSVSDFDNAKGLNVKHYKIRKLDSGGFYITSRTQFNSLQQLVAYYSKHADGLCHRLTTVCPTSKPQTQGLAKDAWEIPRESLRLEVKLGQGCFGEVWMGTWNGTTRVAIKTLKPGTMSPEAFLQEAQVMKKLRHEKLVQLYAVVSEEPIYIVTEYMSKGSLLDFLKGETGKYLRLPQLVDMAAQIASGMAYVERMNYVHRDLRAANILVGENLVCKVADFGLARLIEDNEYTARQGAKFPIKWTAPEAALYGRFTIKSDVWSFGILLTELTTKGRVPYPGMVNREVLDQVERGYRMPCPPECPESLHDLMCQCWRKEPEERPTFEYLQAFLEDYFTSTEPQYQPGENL
T2 sequence (Q16539 whole entry): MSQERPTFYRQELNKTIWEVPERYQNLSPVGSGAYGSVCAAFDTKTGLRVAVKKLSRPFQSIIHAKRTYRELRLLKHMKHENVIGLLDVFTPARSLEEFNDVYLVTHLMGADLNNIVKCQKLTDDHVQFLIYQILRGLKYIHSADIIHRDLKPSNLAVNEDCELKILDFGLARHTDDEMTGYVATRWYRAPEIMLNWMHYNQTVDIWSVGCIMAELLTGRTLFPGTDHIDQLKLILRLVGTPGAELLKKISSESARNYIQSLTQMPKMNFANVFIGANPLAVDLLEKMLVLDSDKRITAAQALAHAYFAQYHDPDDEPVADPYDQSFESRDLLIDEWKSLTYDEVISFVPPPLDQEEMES

| T1/2 [1] [s] | T1/2 [2] [s] | IC50 [3] | Kd [4] | SMILES |
| --- | --- | --- | --- | --- |
| 5.35 | 43.6 | – | – | CC(C)(C)c1cc(NC(=O)Nc2ccc(Cl)cc2)n(-c2cccc(N)c2)n1 |
| – | – | Not Active | Not Active | CC(C)(C)c1cc(NC(=O)Nc2ccc(Cl)cc2)n(-c2c(Cl)cc(C(F)(F)F)cc2Cl)n1 |
